Test results from patent US20230295087A1, “AGONISTS OF ROR GAMMAt” (BRISTOL-MYERS SQUIBB COMPANY, priority 2019, published 2023).

target: T1, human RORgT (Homo sapiens, UniProt P51449); assay: RORgT Gal4 Luciferase Reporter Gene Assay; type: cell-based; details: engineered Jurkat cells overexpressing RORgT (LBD or full length) fused with Gal4 Luc reporter; 18 hours at 37° C.; luminescence
T1 construct: expressed in transfected cells
T1 sequence (P51449 267-516): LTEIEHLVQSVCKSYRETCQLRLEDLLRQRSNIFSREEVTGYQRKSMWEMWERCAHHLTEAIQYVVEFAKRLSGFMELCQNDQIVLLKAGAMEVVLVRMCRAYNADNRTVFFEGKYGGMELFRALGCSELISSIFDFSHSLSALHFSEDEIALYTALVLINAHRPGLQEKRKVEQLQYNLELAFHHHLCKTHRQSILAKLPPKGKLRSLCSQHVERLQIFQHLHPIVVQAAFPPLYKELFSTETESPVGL
Protocol: RORgT Gal4 Luciferase Reporter Gene Assay
25 µL of cryopreserved Jurkat cells over expressing ligand binding domain (LBD) of RORgT (aa267-516, NM_005060) and Gal4 Luc, or full length of human RORgT and Gal4 Luc, were plated in 384-well solid white cell culture plates (PerkinElmer 6007899), with a density of 10,000 cells/well in RPMI 1640 cell culture media (Gibco 11875-085). The media contained 0.1% BSA, 10 mM HEPES (Gibco 15360-080), […] Sodium Pyruvate (Gibco 11360-040), […] Hygromycin B (Invitrogen 10687-010), and […] Blasticidin (Invitrogen R210-01).
100 nL of compound at varying concentrations in 3-fold serial dilution, with final concentrations ranging from 40 µM to 0.67 nM, were added to the cells using Labcyte Echo 550. The compound and the cells were incubated for 18 hours at 37° C. in a cell culture incubator. Cells were then lysed with 15 uL of Steady-Glo Luciferase Assay reagent (Promega EZ550), followed by centrifuging the assay plates at 1500 RPM for 1 minute. Subsequently, the plates were read on the Envision (PerkinElmer). The inhibition of constitutive activity of RORgT achieved by graded concentrations of compound was calculated as a percentage of the luminescence signal window reduction over a control compound.

SMILES | EC50
O=C(CC1CCS(=O)(=O)C1)N1CC[C@@]2(S(=O)(=O)c3ccc(F)cc3)c3ccc(OCc4c(F)cccc4C(F)(F)F)cc3CC[C@@H]12 (mixture of isomers) [Example 17] | 8.2 nM
O=C(O)[C@H]1CC[C@H](C(=O)N2CC[C@@]3(S(=O)(=O)c4ccc(F)cc4)c4ccc(OCc5c(F)cccc5Cl)cc4CC[C@@H]23)CC1 [Example 1, (1r,4r)-4-[(3aR,9bR)-7-[(2-chloro-6-fluorophenyl)methoxy]-9b-(4-fluorobenzenesulfonyl)-1H,2H,3H,3aH,4H,5H,9bH-benzo[e]indole-3-carbonyl]cyclohexane-1-carboxylic acid] | 8.4 nM
O=C(O)[C@H]1CC[C@H](C(=O)N2CC[C@@]3(S(=O)(=O)c4ccc(F)cc4)c4ccc(CCc5c(Cl)cccc5Cl)cc4CC[C@@H]23)CC1 [Example 2, (1r,4r)-4-[(3aR,9bR)-7-[2-(2,6-dichlorophenyl)ethyl]-9b-(4-fluorobenzenesulfonyl)-1H,2H,3H,3aH,4H,5H,9bH-benzo[e]indole-3-carbonyl]cyclohexane-1-carboxylic acid] | 6.8 nM
O=C(O)[C@H]1CC[C@H](C(=O)N2CC[C@@]3(S(=O)(=O)c4ccc(F)cc4)c4ccc(Oc5c(F)cccc5C(F)(F)F)cc4CC[C@@H]23)CC1 [Example 4, (1R,4r)-4-((3aR,9bR)-7-(2-fluoro-6-(trifluoromethyl)phenoxy)-9b-((4-fluorophenyl)sulfonyl)-2,3,3a,4,5,9b-hexahydro-1H-benzo[e]indole-3-carbonyl)cyclohexane-1-carboxylic acid] | 10 nM
O=C(O)[C@H]1CC[C@H](C(=O)N2CC[C@@]3(S(=O)(=O)c4ccc(F)cc4)c4ccc(Cc5c(F)cccc5Cl)cc4CC[C@@H]23)CC1 [Example 5, (1R,4r)-4-((3aR,9bR)-7-(2-chloro-6-fluorobenzyl)-9b-((4-fluorophenyl)sulfonyl)-2,3,3a,4,5,9b-hexahydro-1H-benzo[e]indole-3-carbonyl)cyclohexanecarboxylic acid] | 7.1 nM
O=C(O)[C@H]1CC[C@H](C(=O)N2CC[C@@]3(S(=O)(=O)c4ccc(F)cc4)c4ccc(COc5c(Cl)cccc5Cl)cc4CC[C@@H]23)CC1 [Example 6, (1R,4r)-4-((3aR,9bR)-7-((2,6-dichlorophenoxy)methyl)-9b-((4-fluorophenyl)sulfonyl)-2,3,3a,4,5,9b-hexahydro-1H-benzo[e]indole-3-carbonyl)cyclohexanecarboxylic acid] | 2.4 nM
CC1(C(=O)N2CC[C@@]3(S(=O)(=O)c4ccc(F)cc4)c4ccc(OCc5c(F)cccc5Cl)cc4CC[C@@H]23)CCS(=O)(=O)CC1 [Example 7, ((3aR,9bR)-7-((2-chloro-6-fluorobenzyl)oxy)-9b-((4-fluorophenyl)sulfonyl)-4,5-dihydro-1H-benzo[e]indol-3(2H,3aH,9bH)-yl)(4-methyl-1,1-dioxidotetrahydro-2H-thiopyran-4-yl)methanone] | 22 nM
C[C@]1(C(=O)N2CC[C@@]3(S(=O)(=O)c4ccc(F)cc4)c4ccc(OCc5c(F)cccc5Cl)cc4CC[C@@H]23)CC[C@H](C(=O)O)CC1 [Example 9, (1R,4r)-4-((3aR,9bR)-7-((2-chloro-6-fluorobenzyl)oxy)-9b-((4-fluorophenyl)sulfonyl)-2,3,3a,4,5,9b-hexahydro-1H-benzo[e]indole-3-carbonyl)-4-methylcyclohexanecarboxylic acid] | 17 nM
O=C(O)[C@H]1CC[C@H](CN2CC[C@@]3(S(=O)(=O)c4ccc(F)cc4)c4ccc(OCc5c(F)cccc5C(F)(F)F)cc4CC[C@@H]23)CC1 [Example 10] | 39 nM
Cc1ccccc1Cc1ccc2c(c1)CC[C@H]1N(C(=O)[C@]3(C)CC[C@@H](C(=O)O)CC3)CC[C@@]21S(=O)(=O)c1ccc(F)cc1 [Example 12, (1R,4r)-4-((3aR,9bR)-9b-((4-fluorophenyl)sulfonyl)-7-(2-methylbenzyl)-2,3,3a,4,5,9b-hexahydro-1H-benzo[e]indole-3-carbonyl)-4-methylcyclohexane-1-carboxylic acid] | 19 nM
